Consider six molecules from patent publication US11236049B2, “Amorphous and crystalline forms of IDO inhibitors” (BRISTOL-MYERS SQUIBB COMPANY, priority 2017, dated 2022).

Series [1] is classed as physicochemical.
The conditions of series [2]: for AUC (Mean) / Dissolution Rate (Mean): 150 mg in 250 mL (0.60 mg/mL API equivalent), 37° C.
Procedure: Microdissolution Microdissolution experiments were conducted in a pIon μDiss Profiler microdissolution instrument (pION μDiss Profiler) with a fiber optic UV monitoring system, as follows: Probes: 2.5 mm probes (5 mm path length) Volume: 15 ml Stirring: 150 rpm Temperature: 37° C. […] The target doses were 150 mg in 250 mL (0.60 mg/mL API equivalent) in FaSSIF (pH 6.5) and FeSSIF (pH 5).
A short description of series [3]: Solid state stability of Compound 1 free base Form 4. The format is physicochemical. An excerpt: The results of those experiments are in the table, below.
Series [4] is classed as physicochemical. The source says:
There was no evidence of form change, dehydration, or amorphous formation after 8 weeks. There was no change in TGA at 8 weeks in all samples.
This is another data set of the same source.

Series [5] can be described thus: pH solubility of Compound 1 MSA Salt Form 1. It counts as physicochemical. Particulars: 22 °C, aqueous buffer, thermodynamic from solid; from pH solubility profile of MSA Salt Form 1; read-out: Solubility for the free-base. How it is done:
Measurements were taken using an Orion ATI Model 370 pH meter. […] To each vial was added 5 mL of various aqueous acidic and basic solutions. Each vial was stoppered and vortexed and sonicated to mix well. The pH of each sample was recorded. […] After 24 hours of stirring, the pH of each sample (as a suspension) was recorded. Suspensions were filtered with 0.2 micron Acrodisc syringe filters. The clear filtrates were collected and vortexed to mix well pH of each filtrated was recorded. pH of suspension and filtrate were nearly identical. A 1.0 mL aliquot of each of the filtrates 25-fold using 50% acetonitrile/50% Milli-Q water, q.w. each flask to 25 mL. […] Samples were assayed using the following HPLC method: Column: […] Mobile phase Solvent A: Water w/0.05% TFA • Solvent B: Acetonitrile w/0.05% TFA […] Column temperature: Ambient RT Detector Wavelength: 250 nm […] Working Concentration: […] Added 20 mL of 100% acetonitrile to the vial. Stoppered, vortexed, and sonicated the vial. […] Transferred the suspension to a 250 mL glass volumetric flask, and washed out the glass vial with 4×20 mL 50% acetonitrile/50% Milli-Q water, transferring each wash into the volumetric flask. All solids dissolved. Q.S. the volumetric flask to 250 mL final volume using 50% acetonitrile/50% Milli Q water, shake to give standard solution at 101.5 mcg/mL.

The mark [6] stands for this setting: 25° C./60% relative humidity, 4-week.
Setting [7] is: 40° C./75% relative humidity (closed), 4-week.
[8] abbreviates: 40° C./75% relative humidity (open), 4-week.
Setting [9] is: High intensity light (HIL), 4-week.
Setting [10] is: solid state stress conditions tested.

Like-named read-outs stand apart in the source and are kept apart here.

On to `C[C@@H](C(=O)Nc1ccc(Cl)cc1)[C@H]1CC[C@@H](c2ccnc3ccc(F)cc32)CC1` [Compound 1 Free Base Amorphous, (R)-N-(4-chlorophenyl)-2-((1S,4S)-4-(6-fluoroquinolin-4-yl)cyclohexyl)propanamide], for which, in series [1] (heated between 67° C. and 150° C.), the “form change on heating” value is “No crystallization was observed”.
Regarding `CS(=O)(=O)O.C[C@@H](C(=O)Nc1ccc(Cl)cc1)[C@H]1CC[C@@H](c2ccnc3ccc(F)cc32)CC1` [Amorphous Compound 1 MSA, (R)-N-(4-chlorophenyl)-2-((1S,4S)-4-(6-fluoroquinolin-4-yl)cyclohexyl)propanamide methanesulfonate], the results for the form change result in series [1] (heat stressing at 60° C. (Example 8A)) and in series [1] (heat stressing at 60° C. after 9 days) were “recrystallized to Compound 1 MSA Salt Form 1” and “converted to Compound 1 MSA Salt Form 1”, respectively.
`CS(=O)(=O)O.C[C@@H](C(=O)Nc1ccc(Cl)cc1)[C@H]1CC[C@@H](c2ccnc3ccc(F)cc32)CC1.O` [Compound 1 MSA salt monohydrate Form 2, (R)-N-(4-chlorophenyl)-2-((1S,4S)-4-(6-fluoroquinolin-4-yl)cyclohexyl)propanamide methanesulfonic acid salt monohydrate]: the form change result in series [1] (stressing at 75% relative humidity at 40 C for 6 days) is “converts to Compound 1 MSA Salt Form 1 and Compound 1 MSA Salt monohydrate form 2”. In addition, the “dissolution rate compared with Compound 1 MSA Salt Form 1” value in series [2] (Example 15, FaSSIF, statistically significant difference) is recorded as “slightly faster”. The “AUC (Mean)” value in series [2] (FaSSIF (pH 6.5)) is 14315.281 µg·min/mL; in series [2] (FeSSIF (pH 5)), 50014.687 µg·min/mL. Moreover, the results for the “Dissolution Rate (Mean)” value in series [2] (FaSSIF (pH 6.5)) and in series [2] (FeSSIF (pH 5)) were 4.449 µg/mL/min and 47.996 µg/mL/min, respectively. Also, the “Peak Solubility (Mean)” value was 287.395 µg/mL in series [2] (pH 5) and 91.325 µg/mL in series [2] (pH 6.5).
In the case of `C[C@@H](C(=O)Nc1ccc(Cl)cc1)[C@H]1CC[C@@H](c2ccnc3ccc(F)cc32)CC1` [Compound 1 free base Form 4, (R)-N-(4-chlorophenyl)-2-((1S,4S)-4-(6-fluoroquinolin-4-yl)cyclohexyl)propanamide], the Area % turned out to be 99.78% Area % in series [3] (25° C./60% relative humidity, 2-week); 99.77% Area % in series [3] (setting [6]); 99.78% Area % in series [3] (40° C./75% relative humidity (closed), 2-week); 99.71 Area % in series [3] (setting [7]); 99.79% Area % in series [3] (40° C./75% relative humidity (open), 2-week); 98.46% Area % in series [3] (setting [8]). Also, the Area % is recorded as 99.68% Area % in series [3] (50° C., 2-week); 99.74% Area % in series [3] (50° C., 4-week); 99.77% Area % in series [3] (High intensity light (HIL), 2-week); 99.58% Area % in series [3] (setting [9]); 99.75% Area % in series [3] (RT/RL (room temperature/room light), 2-week); 99.70% Area % in series [3] (RT/RL (room temperature/room light), 4-week). Moreover, the time chemically stable in series [3] (setting [10]) was “at least 4 weeks”. Moreover, the “time for which no changes were observed” value in series [3] (setting [10]) is on record as “at least 2 weeks”. In series [1] (melt/quench experiment, XRPD showed no evidence of crystalline material), the form change entry is “resulted in a glass with a few fine, birefringent acicular particles”.
Consider `C[C@@H](C(=O)Nc1ccc(Cl)cc1)C1CCC(c2ccnc3ccc(F)cc23)CC1.O` (stereo partly drawn) [Compound 1 Free Base monohydrate Form 2, (R)-N-(4-chlorophenyl)-2-((1S,4S)-4-(6-fluoroquinolin-4-yl)cyclohexyl)propanamide monohydrate], for which the “form change on heating” value in series [1] (heated for ˜2 hours) is recorded as “no form change by XRPD”; in series [1] (˜79 to 80° C. for 1 day or ˜75° C. under nitrogen gas flow for ˜20 hours), “partial conversion to other crystalline forms”. Further, the behaviour on heating result in series [1] (heating to ˜125° C.) is given as “liquefy”. For the same molecule, the “form change on dehydration” value in series [1] (overnight hold at 0% RH) was “converted to an unstable form”. Also, the rate of dissolution in series [2] (Example 16, FeSSIF) stood at 23 µg/mL/min. Besides, the time chemically stable in series [4] is “at least 13.5 weeks”. Further, the Area % in series [4] (setting [6]) turned out to be 99.90% Area %; in series [4] (25° C./60% relative humidity, 8-week) it was 99.90% Area %; in series [4] (25° C./60% relative humidity, 13.5 week), 99.73% Area %; in series [4] (setting [7]), 99.90% Area %; in series [4] (40° C./75% relative humidity (closed), 8-week), 99.90% Area %; in series [4] (40° C./75% relative humidity (closed), 13.5 week), 99.62% Area %. The Area % was 99.90% Area % in series [4] (setting [8]); 99.90% Area % in series [4] (40° C./75% relative humidity (open), 8-week); 99.63% Area % in series [4] (40° C./75% relative humidity (open), 13.5 week); 99.90% Area % in series [4] (50° C., 4-week); 99.04% Area % in series [4] (50° C., 8-week); 99.79% Area % in series [4] (50° C., 13.5 week). Further, the Area % amounted to 99.1% Area % in series [4] (setting [9]); 99.90% Area % in series [4] (RT/RL (room temperature, room light), 4-week); 99.90% Area % in series [4] (RT/RL (room temperature, room light), 8-week); 99.78% Area % in series [4] (RT/RL (room temperature, room light), 13.5 week). Moreover, in series [4] (after 8 weeks), the “evidence of form change, dehydration, or amorphous formation” value is “no evidence”. For the same molecule, the “changes in PXRD” value in series [4] (at 4 weeks or 8 weeks in all samples) was “No changes”. Besides, the “change in TGA” value in series [4] (at 8 weeks in all samples) is “no change”.
For the molecule `C[C@@H](C(=O)Nc1ccc(Cl)cc1)[C@H]1CC[C@@H](c2ccnc3ccc(F)cc32)CC1` [Compound 1, (R)-N-(4-chlorophenyl)-2-((1S,4S)-4-(6-fluoroquinolin-4-yl)cyclohexyl)propanamide], the solubility at 24 h in series [5] fell in the range of 1 to 2 µg/mL.

For orientation: solubility means the concentration that dissolves in the medium under given conditions.
